In patent publication US20130115294A1, “STABLE LIQUID OILY READY-TO-USE FORMULATIONS, PREPARATION THEREOF AND USE THEREOF” (CTS CHEMICAL INDUSTRIES LTD., priority 2010, published 2013):
Structures can show the parent of a compound that is named as a salt. Where two headings read alike, the source gives them in different places.

Experiment: Caco-2 cell monolayer uptake and apparent permeability
Assay type: in vitro ADME
Settings: human
Procedure: Caco-2 monolayer were grown in Dulbecco's modified Eagle's medium supplemented with 10% fetal bovine serum, 1% L-glutamine, 1% nonessential amino acids, and 5% antibiotic-antimycotic solution at 37° C. in humidified air, 5% CO2 atmosphere. The culture medium was replaced every 96 h. The uptake studies were conducted with monolayers (passages 73 to 79) in wells of 2 cm^2 which reach confluency following 4 days of incubation in culture. Prior to the experiments, the culture medium was replaced with transport medium and cell monolayers were subsequently equilibrated for 30 min at 37° C. before the uptake study. The transport medium was Hanks buffer composed of 136.89 mM NaCl, 5.36 mM KCl, 0.34 mM Na2HPO4, 0.44 mM KH2PO4, 0.41 mM MgSO4 7H2O, 19.45 mM glucose, 1.26 mM CaCl2, 0.49 mM MgCl2 6H2O, 4.17 mM NaHCO3, 10 mM HEPES, and the pH was adjusted to 7.4.
The powder (10 mg equivalent to 1 mg enalapril maleate) was weighted dispersed and fully dissolved in 1 ml Hanks buffer. 25 μl from this solution were placed in Caco-2 wells with 975 μl of Hanks buffer resulting in a final concentration of 25 μg/ml of enalapril maleate.
A 100 μl of parent CTS oil formulation was withdrawn and diluted with soybean oil USP to give 1 mg/ml of enalapril maleate.
A 25 μl of the diluted oil solution was placed into the transport medium to give a 25 μg/ml of enalapril maleate in each well (dilution 1:40).
All the uptake experiments were performed over 3 hours at 37° C. Following incubation the transport medium was collected in clean tubes stored at −80° C. up to the quantitative determination of the enalapril levels by HPLC (The HPLC method was provided by CTS). Regarding the cell monolayer in the wells, 1 ml of 0.2% SDS was added to each well to elicit lysis of the cell monolayer. The lysate were collected in a clean tube and enalapril was determined by CTS HPLC technique. […]

CCOC(=O)[C@H](CCc1ccccc1)N[C@@H](C)C(=O)N1CCC[C@H]1C(=O)O [ENL-solution, enalapril maleate]
Papp at 3 h, 25 μg/ml (Caco-2, pH 7.4, 25 μg/ml enalapril maleate, no intestinal juice, read-out: apparent permeability (Papp)): 25.1 ± 0.5 ×10⁻⁶ cm/s
Papp at 3 h, 25 μg/ml (Caco-2, pH 7.4, printed values are Papp multiplied by 10^6, 25 μg/ml enalapril maleate, 37° C., Hanks buffer pH 7.4, + 0.1% intestinal juice (IJ), read-out: Papp × 10^6 (cm/s) ± s.d): 25.2 ± 4.81 ×10⁻⁶ cm/s
Papp at 3 h, 25 μg/ml (Caco-2, pH 7.4, printed values are Papp multiplied by 10^6, 25 μg/ml enalapril maleate, 37° C., Hanks buffer pH 7.4, no intestinal juice, read-out: Papp × 10^6 (cm/s) ± s.d): 25.1 ± 2.93 ×10⁻⁶ cm/s
